Experimental data: patent US20090170886A1 (Pfizer Inc, priority 2005, published 2009)

Molecular target: T1, androgen receptor in MDA-MB453-MMTV clone 54-19 cells (Homo sapiens, UniProt P10275)
T1 sequence (P10275 1-920 Q868H): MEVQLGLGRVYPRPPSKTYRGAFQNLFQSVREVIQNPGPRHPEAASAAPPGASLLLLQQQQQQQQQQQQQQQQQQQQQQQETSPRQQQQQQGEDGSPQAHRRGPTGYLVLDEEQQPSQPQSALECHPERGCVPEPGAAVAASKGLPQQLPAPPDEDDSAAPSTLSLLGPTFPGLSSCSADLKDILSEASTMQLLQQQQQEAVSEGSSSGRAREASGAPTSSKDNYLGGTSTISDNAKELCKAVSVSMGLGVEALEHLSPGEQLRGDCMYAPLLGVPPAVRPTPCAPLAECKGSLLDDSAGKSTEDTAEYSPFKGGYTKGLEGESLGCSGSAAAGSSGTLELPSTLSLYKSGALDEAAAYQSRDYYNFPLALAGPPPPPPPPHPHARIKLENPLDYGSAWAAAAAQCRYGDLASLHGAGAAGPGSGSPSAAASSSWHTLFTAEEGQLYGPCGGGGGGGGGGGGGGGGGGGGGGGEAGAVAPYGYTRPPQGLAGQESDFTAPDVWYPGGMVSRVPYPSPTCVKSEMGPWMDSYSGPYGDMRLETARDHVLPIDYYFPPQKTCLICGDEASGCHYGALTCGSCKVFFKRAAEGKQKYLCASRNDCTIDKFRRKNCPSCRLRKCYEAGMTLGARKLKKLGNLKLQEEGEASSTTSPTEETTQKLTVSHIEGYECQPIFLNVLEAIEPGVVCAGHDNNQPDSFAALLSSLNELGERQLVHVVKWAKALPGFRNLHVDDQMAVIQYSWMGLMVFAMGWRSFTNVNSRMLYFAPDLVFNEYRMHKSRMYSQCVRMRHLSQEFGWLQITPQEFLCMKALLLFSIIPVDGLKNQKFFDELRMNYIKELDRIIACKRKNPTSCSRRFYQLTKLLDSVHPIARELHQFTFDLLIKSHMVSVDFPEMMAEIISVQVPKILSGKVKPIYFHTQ
Test: AR Antagonist Cell Assay (MMTV-luciferase reporter, DHT-induced)
Format: cell-based
Settings: MDA-MB453-MMTV clone 54-19, 100 pM DHT, 17 hr; mean of multiple tests
Summary of the method: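 MDA-MB453 cells stably carrying an ARE-containing MMTV-luciferase reporter, in phenol red-free medium with 1% charcoal-treated serum, preincubated 30 min with compound (0.32-1000 nM), then stimulated with 100 pM DHT for 17 h at 37 °C. Luminescence read; percent inhibition of DHT fold induction.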

SMILES	IC50
CC(Oc1ccc(C#N)c(C(F)(F)F)c1)c1ccccc1 (racemic) [Example 1, 4-(1-Phenyl-ethoxy)-2-trifluoromethyl-benzonitrile]	90 nM
CCCC(Oc1ccc(C#N)c(C(F)(F)F)c1)c1cccc(O)c1 (racemic) [Example 14, 4-[1-(3-Hydroxyphenyl)butoxy]-2-(trifluoromethyl)benzonitrile]	36 nM
CCCC(Oc1ccc(C#N)c(C(F)(F)F)c1)c1cccc(O)c1 (single isomer, unassigned; (+)) [Example 15, (+)4-[1-(3-Hydroxyphenyl)butoxy]-2-(trifluoromethyl)benzonitrile]	102 nM
CC(C)CC(Oc1ccc(C#N)c(C(F)(F)F)c1)c1cccc(O)c1 (single isomer, unassigned; (+)) [Example 21, (+)4-[1-(3-Hydroxyphenyl)-3-methylbutoxy]-2-(trifluoromethyl)benzonitrile]	79 nM
CC(Oc1ccc(C#N)c(C(F)(F)F)c1)c1cncc(O)c1 (single isomer, unassigned; (+)) [Example 74, (+)4-[1-(5-Hydroxypyridin-3-yl)ethoxy]-2-(trifluoromethyl)benzonitrile]	111 nM
CC(Oc1ccc(C#N)c(C(F)(F)F)c1)c1cccc(O)c1 (single isomer, unassigned; (-)) [Example 9, (−)-4-[1-(3-Hydroxyphenyl)ethoxy]-2-(trifluoromethyl)benzonitrile]	13 nM
C=CCC(Oc1ccc(C#N)c(C(F)(F)F)c1)c1cccc(O)c1 (single isomer, unassigned; (-)) [Example 19, (−)4-{[1-(3-Hydroxyphenyl)but-3-enyl]oxy}-2-(trifluoromethyl)benzonitrile]	34 nM
N#Cc1ccc(OCc2cccc(O)c2)cc1C(F)(F)F [Example 6, 4-[(3-Hydroxybenzyl)oxy]-2-(trifluoromethyl)benzonitrile]	6 nM
CCC(Oc1ccc(C#N)c(C(F)(F)F)c1)c1ccccn1 (stereo not drawn) [Example 79, 4-(1-Pyridin^−2-yl-propoxy)-2-trifluoromethyl-benzonitrile]	27.1 nM
COc1cccc(C(C)Oc2ccc(C#N)c(C(F)(F)F)c2)n1 (stereo not drawn) [Example 80, 4-[1-(6-Methoxy-pyridin-2-yl)-ethoxy]-2-trifluoromethyl-benzonitrile]	152 nM
CC(C)CC(Oc1ccc(C#N)c(C(F)(F)F)c1)c1cccnc1 (stereo not drawn) [Example 88, 4-(3-Methyl-1-pyridin-3-yl-butoxy)-2-trifluoromethyl-benzonitrile]	50 nM
Cc1ccc(C(CC(C)C)Oc2ccc(C#N)c(C(F)(F)F)c2)cn1 (stereo not drawn) [Example 89, 4-[3-Methyl-1-(6-methyl-pyridin-3-yl)-butoxy]-2-trifluoromethyl-benzonitrile]	56 nM
